Data reported in ChEMBL document CHEMBL1125072, “Synthesis and biochemical evaluation of tritium-labeled 1-methyl-N-(8-methyl-8-azabicyclo[3.2.1]oct-3-yl)-1H-indazole-3-carboxa mide, a useful radioligand for 5HT3 receptors” (J Med Chem, 1990).

Key:
[1] = target: T1, Serotonin 3 (5-HT3) receptor (Rattus norvegicus, UniProt P35563+Q9JJ16); test: pKi value for inhibition of [3H]LY-278584 binding to 5-hydroxytryptamine 3 receptor; format: protein-complex assay
T1 sequence (P35563 whole entry): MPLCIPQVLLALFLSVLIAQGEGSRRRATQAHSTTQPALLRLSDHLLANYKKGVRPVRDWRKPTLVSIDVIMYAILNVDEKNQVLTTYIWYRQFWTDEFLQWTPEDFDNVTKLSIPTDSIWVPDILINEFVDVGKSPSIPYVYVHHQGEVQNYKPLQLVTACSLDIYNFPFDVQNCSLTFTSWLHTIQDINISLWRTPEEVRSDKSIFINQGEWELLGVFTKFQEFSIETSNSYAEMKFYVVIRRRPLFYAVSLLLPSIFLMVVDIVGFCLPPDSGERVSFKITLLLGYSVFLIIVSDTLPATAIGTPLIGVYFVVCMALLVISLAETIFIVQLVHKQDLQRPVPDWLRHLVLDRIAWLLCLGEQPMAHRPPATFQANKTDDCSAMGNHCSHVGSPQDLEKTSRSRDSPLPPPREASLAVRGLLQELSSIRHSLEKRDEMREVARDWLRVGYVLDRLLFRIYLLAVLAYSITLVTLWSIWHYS
T1 sequence (Q9JJ16 whole entry): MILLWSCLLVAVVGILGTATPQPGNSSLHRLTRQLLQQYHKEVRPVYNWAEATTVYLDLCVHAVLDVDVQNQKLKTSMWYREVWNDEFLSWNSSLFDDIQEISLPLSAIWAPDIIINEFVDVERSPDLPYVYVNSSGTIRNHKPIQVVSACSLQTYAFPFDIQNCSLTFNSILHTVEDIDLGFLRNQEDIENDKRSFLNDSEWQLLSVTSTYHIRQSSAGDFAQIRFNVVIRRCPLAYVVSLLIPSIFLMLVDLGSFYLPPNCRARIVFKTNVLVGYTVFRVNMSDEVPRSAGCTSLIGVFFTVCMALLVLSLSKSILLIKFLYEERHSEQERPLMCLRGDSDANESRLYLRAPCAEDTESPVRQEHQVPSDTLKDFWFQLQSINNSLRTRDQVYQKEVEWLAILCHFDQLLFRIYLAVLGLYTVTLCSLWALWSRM

[2] = target: T1, Serotonin 3 (5-HT3) receptor; test: Inhibitory activity against 5-hydroxytryptamine 3 receptor in rat cortical membranes using [3H]- 1-Methyl-1H-indazole-3-carboxylic acid (8-methyl-8-aza-bicyclo[3.2.1]oct-3-yl)-amide as a radioligand; format: cell membranes
[3] = target: 5-hydroxytryptamine receptor 1B (Rattus norvegicus, UniProt P28564); test: Inhibitory activity against 5-hydroxytryptamine 1B receptor in rat cortical membranes using [3H]5-HT as a radioligand; format: cell membranes
5-hydroxytryptamine receptor 1B, sequence (P28564 whole entry): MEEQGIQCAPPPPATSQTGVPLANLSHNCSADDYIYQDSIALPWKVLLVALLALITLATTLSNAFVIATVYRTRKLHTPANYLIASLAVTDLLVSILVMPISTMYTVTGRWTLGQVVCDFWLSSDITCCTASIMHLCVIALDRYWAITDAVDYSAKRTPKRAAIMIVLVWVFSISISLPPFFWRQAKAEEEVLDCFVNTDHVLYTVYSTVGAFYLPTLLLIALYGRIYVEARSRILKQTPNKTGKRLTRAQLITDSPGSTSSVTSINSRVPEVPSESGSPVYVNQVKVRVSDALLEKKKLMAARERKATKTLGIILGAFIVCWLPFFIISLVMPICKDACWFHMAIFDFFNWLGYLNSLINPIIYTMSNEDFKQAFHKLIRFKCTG

[4] = test system: Rattus norvegicus; test: Effective dose required to reduce von benzold jarisch reflex response to 5-HT was determined; Value ranges from 10-30 ug/Kg; format: functional
[5] = target: T2, 5-hydroxytryptamine receptor 1A (Rattus norvegicus, UniProt P19327); test: Inhibitory activity against 5-hydroxytryptamine 1A receptor in rat cortical membranes using [3H]8-OH-DPAT as a radioligand; format: cell membranes
T2 sequence (P19327 whole entry): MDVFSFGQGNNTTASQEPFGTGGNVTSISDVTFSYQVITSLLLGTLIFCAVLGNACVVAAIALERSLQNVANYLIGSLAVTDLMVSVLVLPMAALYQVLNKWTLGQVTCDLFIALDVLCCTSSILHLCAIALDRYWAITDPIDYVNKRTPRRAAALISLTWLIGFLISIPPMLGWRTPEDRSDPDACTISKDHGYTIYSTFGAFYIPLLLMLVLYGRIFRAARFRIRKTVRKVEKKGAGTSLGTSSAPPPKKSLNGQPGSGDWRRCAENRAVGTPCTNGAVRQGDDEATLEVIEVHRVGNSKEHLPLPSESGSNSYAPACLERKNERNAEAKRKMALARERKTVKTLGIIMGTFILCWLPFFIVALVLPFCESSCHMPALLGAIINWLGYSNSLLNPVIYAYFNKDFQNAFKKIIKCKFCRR

[6] = test system: Rattus norvegicus; test: Percentage inhibition 5-HT- mediated bradycardia in rat after 3 ug/Kg of compound administered intravenously; format: functional

Row | Compound | Ki [1] [nM] | Ki [2] [nM] | Ki [3] [nM] | ED50 [4] [mg/kg] | Ki [5] [nM] | Inhibition [6] [%]
1 | CN1C2CCC1CC(NC(=O)c1n[nH]c3ccccc13)C2 (stereo not drawn) | 4.27 | 4.26 | – | – | – | –
2 | CN1C2CCC1CC(NC(=O)c1c3ccccc3nn1C)C2 (stereo not drawn) | 1050 | 1050 | – | – | – | –
3 | CN1[C@@H]2CC[C@H]1C[C@@H](OC(=O)c1cc(Cl)cc(Cl)c1)C2 [BEMESETRON] | 25.7 | 26 | – | – | – | –
4 | CN1C2CCCC1CC(NC(=O)c1nn(C)c3ccccc13)C2 (stereo not drawn) [GRANISETRON] | – | – | > 1000 | 0.01 | > 1000 | –
5 | CCN(CC)CCNC(=O)c1cc(Cl)c(N)cc1OC [METOCLOPRAMIDE] | 501 | 502 | – | – | – | –
6 | c1ccc2nc(N3CCNCC3)ccc2c1 [QUIPAZINE] | 3.02 | 3.04 | – | – | – | –
7 | CN1[C@@H]2CC[C@H]1C[C@@H](OC(=O)c1c[nH]c3ccccc13)C2 [TROPISETRON] | 1.29 | 1.28 | – | – | – | 66
8 | COc1cc(N)c(Cl)cc1C(=O)NC1CN2CCC1CC2 (stereo not drawn) [ZACOPRIDE] | 0.417 | 0.42 | – | – | – | –
